We go through three compounds from US20080200556A1, “Amine Compounds And Inhibiting Neurotrasmitter Reuptake” (MAYO FOUNDATION FOR MEDICAL EDUCATION AND RESEARCH, priority 2004, published 2008).

For one test, the system named is Male C57B1/6J mice. The test can be described thus: Tail suspension test in mice. In kind it is in vivo, mouse. As to conditions: PRC025 10 mg/kg; for Time immobile (Counts/6 min) / Time mobile (Counts/6 min): i.p. 30 minutes before testing, imipramine 15 mg/kg (table), mean ±SEM, *P < 0.05 vs. saline. The source says:
When mice are suspended by their tail, there is an initial period of agitation, followed by immobility. This test identifies antidepressant compounds, which decrease the duration of immobility.
Mice were then individually suspended by their tails 35 cm above the tabletop using an adhesive tape placed 1 cm from the tip of the tail. Behavior was scored every 5 seconds throughout the 6-minute test as either mobile or immobile. Mice were considered immobile only when hanging passively and completely motionless. Scores for each behavior were expressed as total counts per […]. Statistical analysis was performed using ANOVA followed by the Tukey test for post-hoc comparisons.

A further test has as its system Male Sprague-Dawley rats. Put plainly: Forced swim test in rats. In kind it is in vivo, rat. As to conditions: i.p., imipramine 15 mg/kg, PRC025 10 mg/kg; for Time immobile (Counts/5 min) / Time swimming (Counts/5 min): mean ±SEM, *P < 0.05 vs. saline. How it is done:
When rats are placed in a cylinder of water from which they cannot escape, they will remain immobile in the water for the majority of the test.
Water was changed between trials, and the procedure involved a pretest and a 5-minute test separated by 24 hours. During the pretest, rats (adapted to the experimental room for no less than 1 hour) were placed in the cylinder for 15 minutes. Following this initial exposure, the rats were dried with towels and transferred to a “drying cage” situated under a warming lamp. […] The following day, rats were transferred to the experimental room and acclimated for at least 1 hour.
The rat was considered immobile when floating motionless or making only those movements necessary to keep its head above the surface of the water. Scores for each behavior (swimming or immobility) were expressed as total counts per […]. Statistical analysis was performed using ANOVA followed by the Tukey test for post-hoc comparisons.

Test [1] addresses human dopamine transporter (hDAT) (Homo sapiens, UniProt Q01959). Put plainly: biochemical.
Procedure: (§1) The cells were incubated in 10% CO2, 90% air at 37° C. and 100% humidity. The hNET cell cultures contained 250 μg/mL geneticin sulfate. The cells were grown to 70-80% confluency prior to harvesting.
(§2) Cell membranes containing hSERT, hNET, or hDAT were prepared from the cell lines to assay ligand binding for each of the transporters. […] The washed cells were incubated for 5 minutes at 37° C. in 10 mL solution 1 containing 100 mM ethylene glycol-bis N,N,N′,N′-tetraacetic acid (EGTA). The cells were then scraped from the flask surface with a rubber spatula, placed into a centrifuge tube, and collected by centrifugation at 1000×g for 5 minutes at 4° C. The resulting supernatant was discarded, and the cell pellet was resuspended in 0.5 to 1.0 mL of the appropriate binding buffer (described below). The resuspended cell pellet was homogenized using a Polytron for 10 seconds at setting 6. The resulting homogenate was centrifuged at about 36,000×g for 10 minutes at 4° C. The supernatant was discarded, and the pellet was resuspended in the same volume of the appropriate binding buffer and centrifuged again. […]
To assess binding to the cloned HDAT, cells expressing HDAT were homogenized in 50 mM Tris-HCl with 120 mM NaCl (pH 7.4). […] Radioactivity was measured with a Beckman liquid scintillation counter (LS 5000TD). […]
Test [2] has as its target T1, human serotonin transporter (hSERT) (Homo sapiens, UniProt P31645). Put plainly: biochemical.
Procedure: as §1, §2
(§3) Radioligand binding assays for the indicated transporters were performed as follows. […] Radioactivity was measured with a Beckman liquid scintillation counter (LS 5000TD). […]
Test [3] concerns the target T1, human serotonin transporter (hSERT).
Procedure: as §1, §2, §3

T1 sequence (P31645 whole entry): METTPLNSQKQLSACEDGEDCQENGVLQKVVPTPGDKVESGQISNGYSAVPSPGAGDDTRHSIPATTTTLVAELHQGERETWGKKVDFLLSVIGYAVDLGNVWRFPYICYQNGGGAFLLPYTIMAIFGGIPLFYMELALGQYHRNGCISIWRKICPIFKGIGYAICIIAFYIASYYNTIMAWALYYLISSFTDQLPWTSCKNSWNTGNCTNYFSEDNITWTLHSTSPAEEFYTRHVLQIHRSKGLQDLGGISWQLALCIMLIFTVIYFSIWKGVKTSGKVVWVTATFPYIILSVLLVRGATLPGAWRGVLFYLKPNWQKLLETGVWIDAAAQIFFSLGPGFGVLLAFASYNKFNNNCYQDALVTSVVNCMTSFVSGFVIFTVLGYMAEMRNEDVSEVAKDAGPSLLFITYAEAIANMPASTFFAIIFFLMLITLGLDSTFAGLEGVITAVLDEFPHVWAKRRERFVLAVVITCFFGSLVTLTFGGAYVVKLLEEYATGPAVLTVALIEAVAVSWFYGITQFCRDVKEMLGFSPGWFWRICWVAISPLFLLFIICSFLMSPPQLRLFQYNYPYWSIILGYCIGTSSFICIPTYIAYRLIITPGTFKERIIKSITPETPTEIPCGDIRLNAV

On to `CN(C)CCCN1c2ccccc2CCc2ccccc21` [Imipramine, imipramine], for which, in the test with Male C57B1/6J mice, the “Time immobile (Counts/6 min)” value was 21 ± 4* Counts/6 min and the “Time mobile (Counts/6 min)” value was 51 ± 4* Counts/6 min. For the same compound, the “mobile behavior versus saline (in words)” value in the test on Male C57B1/6J mice (i.p., imipramine) was “statistically more mobile behavior than mice treated with saline”. Besides, in the test with Male Sprague-Dawley rats, the “swimming behavior versus saline (in words)” value was “statistically more swimming behavior than rats treated with saline”, the “Time immobile (Counts/5 min)” value is reported as 23 ± 3* Counts/5 min and the “Time swimming (Counts/5 min)” value was 37 ± 3* Counts/5 min.
In test [1], `CNCC(c1ccc2ccccc2c1)C(O)c1ccccc1` (racemic) [Compound A, (2RS,3RS)-N-methyl-3-hydroxy-2-(2′-naphthyl)-3-phenylpropylamine] gave a Kd of 0.134 µM.
In turn, `CN(C)CC(c1ccc2ccccc2c1)C(O)C1CCCCC1` (racemic) [PRC025, (2RS,3SR)-N,N-dimethyl-3-cyclohexyl-3-hydroxy-2-(2′-naphthyl)propylamine] gave a Kd in test [2] of 0.0041 µM. Besides, in the test on Male C57B1/6J mice, the “Time immobile (Counts/6 min)” value is listed as 12 ± 3* Counts/6 min and the “Time mobile (Counts/6 min)” value was 60 ± 3* Counts/6 min. Further, in test [3], the “binding to hSERT (in words)” value is “strong binding”. Also, in test [1], the Kd was determined as 0.054 µM. Besides, in the test with Male Sprague-Dawley rats, the “Time immobile (Counts/5 min)” value was 28 ± 3* Counts/5 min and the “Time swimming (Counts/5 min)” value was 30 ± 3* Counts/5 min.
